# Laboratory results reported in paper PMC7799360, “Reprogramming immunosuppressive myeloid cells facilitates immunotherapy for colorectal cancer” (EMBO Molecular Medicine, 2020).
# Read-outs that look alike come from different tables or passages of the source.
# Tests used:
# human EP1 = target: T1, human EP1 (Homo sapiens, UniProt P34995); assay: PGE2-induced calcium flux assay in CHO-Gα16 cells; format: cell-based
# T1 construct: host or cells: CHO-Gα16
# Pan02 tumors = assay: Pan02 pancreatic cancer model in C57BL/6 mice; format: in vivo, mouse; conditions: Pan02, C57BL/6 mice, 75 mg/kg p.o. daily
# Experimental: (§1) Syngeneic mouse tumor‐bearing models were established as described previously (Tan et al., 2018). Tumor cells (5 × 10^5 ‐ 2 × 10^6) were suspended in 100 μl PBS and implanted subcutaneously into the flank of mice. Mice were randomized into different treatment groups when tumor volumes reached 100‐200 mm^3. V = L×W^2 × 0.52, where L is the longest diameter, and W is the shortest diameter. Tumor size and body weight were recorded every second or third day. Mouse survival was analyzed using the Kaplan–Meier method.
# (§2) Single agent or combination treatment was designed as follows: TP‐16 (37.5, 75, 150 mg/kg) or celecoxib (100 mg/kg) was formulated in 0.5% carboxymethylcellulose sodium (CMC‐Na, Sangon Biotech, Shanghai, China) and administered via oral gavage daily. In vivo anti‐PD1 antibody (clone RMP1‐14, BioXCell, West Lebanon, NH, USA) and rat IgG2a isotype control (clone 2A3, BioXCell) were diluted in sterile PBS and administered intraperitoneally at a dose of 50 μg twice weekly.
# [1] = In vitro metabolic stability using liver microsome; format: in vitro ADME; conditions: liver microsomes
# DRD2 = DRD2 (Homo sapiens, UniProt P14416); assay: LANCE Ultra cAMP assay
# ADRA1B = target: T2, ADRA1B (Homo sapiens, UniProt P35368); assay: GPCR calcium flux assay; format: cell-based
# T2 construct: Pharmaron (Beijing, China) performed the assay
# AVPR1A = target: T3, AVPR1A (Homo sapiens, UniProt P37288); assay: GPCR calcium flux assay; format: cell-based
# T3 construct: Pharmaron (Beijing, China), contract laboratory
# CB1 = CB1 (Homo sapiens, UniProt P21554); assay: LANCE Ultra cAMP assay
# OPRK1 = target: T4, OPRK1 (Homo sapiens, UniProt P41145); assay: GPCR calcium flux assay; format: cell-based
# T4 construct: Pharmaron (Beijing, China), contract laboratory
# ADORA3 = target: T5, ADORA3 (Homo sapiens, UniProt P0DMS8); assay: LANCE Ultra cAMP assay; format: cell-based
# T5 construct: Pharmaron (Beijing, China) performed the assay
# CHRM3 = target: T6, CHRM3 (Homo sapiens, UniProt P20309); assay: GPCR calcium flux assay; format: cell-based
# T6 construct: Pharmaron (Beijing, China), contract laboratory
# ADRB2 = target: T7, ADRB2 (Homo sapiens, UniProt P07550); assay: GPCR calcium flux assay; format: cell-based
# T7 construct: Pharmaron (Beijing, China) performed the assay
# [2] = Pharmacokinetics in CD1 mice; format: in vivo, mouse; conditions: for AUC(0-t): read-out: AUC0-24
# Text: 5% (v/v) dimethyl sulfoxide ( DMSO), 10% solutol, and 85% β -cyclodextrin) to male CD1 mice (n = 3). Blood samples were collected at 0.08, 0.25, 0.5, 1, 2, 4, 8, and 24 hr after administration. After suitable sample preparation, the concentration of TP -16 in plasma samples was determine d by the Agilent 1290 HPLC system, coupled with a 6460 triple -quadrupole mass spectrometer and an Agilent Jet Stream electrospray ionization (ESI) source (Agilent
# Technologies, USA). Pharmacokinetic parameters were calculated by WinNonlin software version 7.0 based on non -compartmental analysis
# (Pharsight Corporation, Mountain View, USA). […]
# CT26 tumors = CT26 tumors in BALB/c nude mice; format: in vivo, mouse; conditions: 75 mg/kg
# Experimental: as §1, §2
# human EP3 = human EP3 (Homo sapiens, UniProt P43115); assay: PGE2-induced calcium flux assay in CHO-Gα16 cells; format: cell-based
# CHRM1 = target: T8, CHRM1 (Homo sapiens, UniProt P11229); assay: GPCR calcium flux assay; format: cell-based
# T8 construct: Pharmaron (Beijing, China), contract laboratory
# HTR2B = target: T9, HTR2B (Homo sapiens, UniProt P41595); assay: GPCR calcium flux assay; format: cell-based
# T9 construct: Pharmaron (Beijing, China), contract laboratory
# HTR1B = HTR1B (Homo sapiens, UniProt P28222); assay: LANCE Ultra cAMP assay
# ADRB1 = target: T10, ADRB1 (Homo sapiens, UniProt P08588); assay: GPCR calcium flux assay; format: cell-based
# T10 construct: Pharmaron (Beijing, China) performed the assay
# ADRA1D = target: T11, ADRA1D (Homo sapiens, UniProt P25100); assay: GPCR calcium flux assay; format: cell-based
# T11 construct: Pharmaron (Beijing, China) performed the assay
# DRD1 = target: T12, DRD1 (Homo sapiens, UniProt P21728); assay: GPCR calcium flux assay; format: cell-based
# T12 construct: Pharmaron (Beijing, China), contract laboratory
# ADRA2A = target: T13, ADRA2A (Homo sapiens, UniProt P08913); assay: GPCR calcium flux assay; format: cell-based
# T13 construct: Pharmaron (Beijing, China) performed the assay
# other 25 GPCRs = assay: GPCR selectivity (LANCE Ultra cAMP assay and calcium flux assay); conditions: read-out: IC50 on other 25 GPCRs; LANCE Ultra cAMP and calcium flux assays
# HRH1 = target: T14, HRH1 (Homo sapiens, UniProt P35367); assay: GPCR calcium flux assay; format: cell-based
# T14 construct: Pharmaron (Beijing, China), contract laboratory
# ADORA2B = ADORA2B (Homo sapiens, UniProt P29275); assay: LANCE Ultra cAMP assay
# CHRM2 = target: T15, CHRM2 (Homo sapiens, UniProt P08172); assay: GPCR calcium flux assay; format: cell-based
# T15 construct: Pharmaron (Beijing, China), contract laboratory
# [3] = male, mouse, plasma, iv, I.V. 1 mg/kg
# [4] = male, mouse, plasma, po, P.O. 10 mg/kg
# T12 sequence (P21728 whole entry, species assumed): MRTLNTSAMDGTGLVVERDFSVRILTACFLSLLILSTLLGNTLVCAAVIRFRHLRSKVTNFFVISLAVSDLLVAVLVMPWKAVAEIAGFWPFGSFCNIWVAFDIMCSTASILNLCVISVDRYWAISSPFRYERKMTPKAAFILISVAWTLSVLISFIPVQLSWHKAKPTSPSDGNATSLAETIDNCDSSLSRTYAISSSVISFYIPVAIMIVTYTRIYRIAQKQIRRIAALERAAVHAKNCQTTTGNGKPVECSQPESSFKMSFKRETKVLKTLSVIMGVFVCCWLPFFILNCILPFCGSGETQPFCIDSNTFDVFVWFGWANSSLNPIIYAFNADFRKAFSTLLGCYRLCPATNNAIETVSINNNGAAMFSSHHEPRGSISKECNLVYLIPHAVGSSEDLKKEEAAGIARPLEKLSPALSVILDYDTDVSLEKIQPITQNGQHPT
# Chain of human EP3 (P43115 1-359 limits assumed): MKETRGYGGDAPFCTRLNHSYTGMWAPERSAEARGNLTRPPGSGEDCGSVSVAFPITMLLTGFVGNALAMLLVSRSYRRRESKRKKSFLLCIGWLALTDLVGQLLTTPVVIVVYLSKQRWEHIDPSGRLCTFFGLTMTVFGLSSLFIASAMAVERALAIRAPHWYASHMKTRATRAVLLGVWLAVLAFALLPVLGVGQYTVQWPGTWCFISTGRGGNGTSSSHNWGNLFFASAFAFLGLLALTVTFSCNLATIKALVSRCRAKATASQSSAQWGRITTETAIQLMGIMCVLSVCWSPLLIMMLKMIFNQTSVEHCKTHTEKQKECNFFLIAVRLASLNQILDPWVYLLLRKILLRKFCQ
# Chain of CB1 (P21554 whole entry, species assumed): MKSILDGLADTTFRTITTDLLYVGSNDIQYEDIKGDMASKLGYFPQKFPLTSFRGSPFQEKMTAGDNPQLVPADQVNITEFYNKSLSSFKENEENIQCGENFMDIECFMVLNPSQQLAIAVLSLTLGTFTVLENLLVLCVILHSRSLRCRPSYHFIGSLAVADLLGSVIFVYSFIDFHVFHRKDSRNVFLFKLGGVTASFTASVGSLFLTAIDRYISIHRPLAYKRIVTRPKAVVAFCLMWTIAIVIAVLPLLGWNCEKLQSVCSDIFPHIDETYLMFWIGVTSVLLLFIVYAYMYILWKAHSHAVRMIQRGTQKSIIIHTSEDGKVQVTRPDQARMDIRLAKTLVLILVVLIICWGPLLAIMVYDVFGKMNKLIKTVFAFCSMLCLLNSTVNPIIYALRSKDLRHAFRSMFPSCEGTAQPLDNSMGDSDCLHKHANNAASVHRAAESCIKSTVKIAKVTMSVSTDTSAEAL
# T14 sequence (P35367 whole entry, species assumed): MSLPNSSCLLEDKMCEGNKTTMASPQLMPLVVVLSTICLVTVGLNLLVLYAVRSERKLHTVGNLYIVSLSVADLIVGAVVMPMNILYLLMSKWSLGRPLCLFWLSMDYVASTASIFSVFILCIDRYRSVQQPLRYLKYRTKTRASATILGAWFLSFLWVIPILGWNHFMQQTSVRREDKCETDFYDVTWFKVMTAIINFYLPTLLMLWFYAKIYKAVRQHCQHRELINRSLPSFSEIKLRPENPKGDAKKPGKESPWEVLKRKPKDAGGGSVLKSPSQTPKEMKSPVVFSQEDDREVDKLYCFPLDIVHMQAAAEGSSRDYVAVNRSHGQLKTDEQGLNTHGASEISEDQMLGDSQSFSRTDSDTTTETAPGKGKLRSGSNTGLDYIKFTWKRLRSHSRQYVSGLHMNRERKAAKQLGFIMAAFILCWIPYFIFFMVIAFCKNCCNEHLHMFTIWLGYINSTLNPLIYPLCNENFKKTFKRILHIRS
# T5 sequence (P0DMS8 whole entry, species assumed): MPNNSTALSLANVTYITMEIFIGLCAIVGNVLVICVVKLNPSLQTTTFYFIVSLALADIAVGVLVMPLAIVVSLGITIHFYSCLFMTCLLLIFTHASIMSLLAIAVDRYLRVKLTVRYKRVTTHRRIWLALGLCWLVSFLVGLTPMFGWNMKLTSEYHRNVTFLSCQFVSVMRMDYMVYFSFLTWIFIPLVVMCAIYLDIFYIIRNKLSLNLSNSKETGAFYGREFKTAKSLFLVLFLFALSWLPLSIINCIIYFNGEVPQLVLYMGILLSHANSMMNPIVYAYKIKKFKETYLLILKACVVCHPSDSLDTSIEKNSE
# Chain of DRD2 (P14416 whole entry, species assumed): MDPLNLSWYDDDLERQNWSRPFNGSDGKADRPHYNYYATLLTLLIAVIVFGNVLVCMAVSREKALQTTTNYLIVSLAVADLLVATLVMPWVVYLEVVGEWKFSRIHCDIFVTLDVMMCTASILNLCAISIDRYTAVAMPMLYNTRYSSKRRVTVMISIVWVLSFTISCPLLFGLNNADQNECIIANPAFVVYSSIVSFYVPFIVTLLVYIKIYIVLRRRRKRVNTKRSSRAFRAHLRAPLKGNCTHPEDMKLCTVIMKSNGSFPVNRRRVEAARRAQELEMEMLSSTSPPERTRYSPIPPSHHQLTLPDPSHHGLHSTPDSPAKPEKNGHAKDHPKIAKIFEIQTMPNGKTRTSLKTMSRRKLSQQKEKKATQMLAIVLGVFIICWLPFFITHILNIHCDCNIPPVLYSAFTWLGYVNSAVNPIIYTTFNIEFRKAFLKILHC
# T2 sequence (P35368 whole entry, species assumed): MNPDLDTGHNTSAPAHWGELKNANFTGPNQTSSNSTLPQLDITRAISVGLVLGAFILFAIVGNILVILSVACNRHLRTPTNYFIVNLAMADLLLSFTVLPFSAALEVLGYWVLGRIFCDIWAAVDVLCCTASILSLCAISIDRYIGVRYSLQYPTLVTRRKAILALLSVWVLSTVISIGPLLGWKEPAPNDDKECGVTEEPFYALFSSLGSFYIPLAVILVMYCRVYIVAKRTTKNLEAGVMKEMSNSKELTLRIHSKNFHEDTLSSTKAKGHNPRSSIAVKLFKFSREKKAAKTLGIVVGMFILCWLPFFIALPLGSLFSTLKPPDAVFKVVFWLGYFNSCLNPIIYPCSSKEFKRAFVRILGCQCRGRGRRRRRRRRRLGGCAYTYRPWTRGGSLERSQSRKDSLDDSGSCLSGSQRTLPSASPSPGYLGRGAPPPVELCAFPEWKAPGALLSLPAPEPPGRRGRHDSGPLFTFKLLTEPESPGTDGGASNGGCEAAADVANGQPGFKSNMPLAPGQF
# T8 sequence (P11229 whole entry, species assumed): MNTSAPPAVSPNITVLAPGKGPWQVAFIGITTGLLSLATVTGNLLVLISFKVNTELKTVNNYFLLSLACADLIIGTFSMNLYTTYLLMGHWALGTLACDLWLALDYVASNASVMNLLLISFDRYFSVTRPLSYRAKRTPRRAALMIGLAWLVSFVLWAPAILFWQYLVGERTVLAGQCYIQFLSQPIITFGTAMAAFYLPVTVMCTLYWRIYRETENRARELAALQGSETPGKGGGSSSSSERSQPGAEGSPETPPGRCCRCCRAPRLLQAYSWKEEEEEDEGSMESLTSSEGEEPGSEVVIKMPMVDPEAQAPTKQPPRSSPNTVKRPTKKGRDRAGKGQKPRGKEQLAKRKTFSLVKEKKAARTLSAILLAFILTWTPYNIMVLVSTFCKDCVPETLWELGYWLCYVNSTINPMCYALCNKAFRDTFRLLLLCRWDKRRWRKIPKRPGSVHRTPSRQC
# T9 sequence (P41595 whole entry, species assumed): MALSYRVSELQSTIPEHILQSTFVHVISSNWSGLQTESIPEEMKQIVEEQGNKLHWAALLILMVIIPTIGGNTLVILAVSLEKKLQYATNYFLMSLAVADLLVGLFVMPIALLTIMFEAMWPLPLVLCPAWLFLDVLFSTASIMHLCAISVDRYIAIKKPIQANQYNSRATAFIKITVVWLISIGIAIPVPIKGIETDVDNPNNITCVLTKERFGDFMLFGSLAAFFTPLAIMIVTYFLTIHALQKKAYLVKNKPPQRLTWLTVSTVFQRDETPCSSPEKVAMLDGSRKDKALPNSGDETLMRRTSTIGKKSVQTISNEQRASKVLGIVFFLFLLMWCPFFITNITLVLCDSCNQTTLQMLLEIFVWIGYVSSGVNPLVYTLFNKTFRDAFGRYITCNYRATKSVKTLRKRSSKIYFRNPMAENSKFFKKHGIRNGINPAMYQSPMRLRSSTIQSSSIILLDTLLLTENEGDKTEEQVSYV
# Chain of ADORA2B (P29275 whole entry, species assumed): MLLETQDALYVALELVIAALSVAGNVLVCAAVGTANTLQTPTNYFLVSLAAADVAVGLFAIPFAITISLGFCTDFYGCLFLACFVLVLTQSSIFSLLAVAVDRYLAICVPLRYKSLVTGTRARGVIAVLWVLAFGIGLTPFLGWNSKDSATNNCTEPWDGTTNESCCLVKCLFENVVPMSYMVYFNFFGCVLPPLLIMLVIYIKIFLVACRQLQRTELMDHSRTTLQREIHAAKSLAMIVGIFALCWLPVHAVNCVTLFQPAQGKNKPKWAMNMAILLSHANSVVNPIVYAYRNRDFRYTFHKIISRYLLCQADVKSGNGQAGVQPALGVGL
# T13 sequence (P08913 whole entry, species assumed): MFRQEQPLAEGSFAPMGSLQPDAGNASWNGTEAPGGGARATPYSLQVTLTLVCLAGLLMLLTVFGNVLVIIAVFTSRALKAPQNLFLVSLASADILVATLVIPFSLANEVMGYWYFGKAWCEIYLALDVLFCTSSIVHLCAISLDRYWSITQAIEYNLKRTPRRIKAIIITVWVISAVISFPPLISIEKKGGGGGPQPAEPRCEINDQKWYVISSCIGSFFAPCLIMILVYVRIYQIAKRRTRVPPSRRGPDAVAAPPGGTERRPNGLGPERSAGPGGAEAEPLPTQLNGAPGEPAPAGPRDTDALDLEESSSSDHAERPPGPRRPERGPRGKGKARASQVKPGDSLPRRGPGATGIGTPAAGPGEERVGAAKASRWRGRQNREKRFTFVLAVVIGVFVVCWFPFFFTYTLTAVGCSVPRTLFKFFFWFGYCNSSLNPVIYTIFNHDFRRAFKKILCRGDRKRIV
smiles,measurement,setting,value
C[C@H](NC(=O)c1c(Cc2ccc(F)cc2)sc2c1CCOC2)c1ccc(C(=O)O)cc1 [TP-16],IC50,human EP1,> 10 µM
same,%TGI,Pan02 tumors,44.0%
same,CLhep predicted,"[1]; human, read-out: Predicted hepatic Clint",< 4.69 mL/min/kg
same,hepatocyte CLint,[1]; human liver microsome,< 2.39 µL/min/1e6 cells
same,half-life,"[1]; human liver microsome, read-out: In vitro T1/2",> 9.68 h
same,CLint scaled,"[1]; human liver microsome, read-out: Scale-up Clint",< 6.07 mL/min/kg
same,IC50,DRD2,> 10 µM
same,IC50,ADRA1B,> 10 µM
same,IC50,AVPR1A,> 10 µM
same,IC50,CB1,> 10 µM
same,IC50,OPRK1,> 10 µM
same,IC50,ADORA3,> 10 µM
same,IC50,CHRM3,> 10 µM
same,IC50,ADRB2,> 10 µM
same,Vd/F,[2]; I.V. 1 mg/kg,2.016 L/kg
same,bioavailability,"[2]; male, mouse, plasma, 10 mg/kg, ratio of oral AUC0-∞ to intravenous AUC0-∞",40.1%
same,AUC(0-inf),[2]; [3],2140 ng·h/mL
same,C0,[2]; [3],2370 ng/mL
same,MRT,[2]; [3],2.1 h
same,half-life,[2]; [3],3 h
same,AUC(0-t),[2]; [3],2140 ng·h/mL
same,AUC(0-inf),[2]; [4],8580 ng·h/mL
same,CL/F,[2]; [4],19.4 mL/min/kg
same,Cmax,[2]; [4],3850 ng/mL
same,MRT,[2]; [4],3.7 h
same,half-life,[2]; [4],5.4 h
same,AUC(0-t),[2]; [4],8400 ng·h/mL
same,Vd/F,"[2]; male, mouse, plasma, po, P.O. 10 mg/kg, read-out: Vd/F",9.08 L/kg
same,anti-tumor efficacy in BALB/c nude mice,CT26 tumors,lost
same,IC50,human EP3,> 10 µM
same,IC50,CHRM1,> 10 µM
same,IC50,HTR2B,> 10 µM
same,IC50,HTR1B,> 10 µM
same,IC50,ADRB1,> 10 µM
same,IC50,ADRA1D,> 10 µM
same,IC50,DRD1,> 10 µM
same,IC50,ADRA2A,> 10 µM
same,IC50,other 25 GPCRs,> 10 µM
same,IC50,HRH1,> 10 µM
same,IC50,ADORA2B,> 10 µM
same,IC50,CHRM2,> 10 µM
